Legend:
Brd4 BD2 = Brd4 BD2 (Homo sapiens (Human), UniProt O60885); experiment: HTRF evaluation of bromodomain inhibitors, Brd4 BD2; assay type: binding; conditions: for IC50: HTRF, H4ac4 peptide 600 nM, 24 h at 4° C.; for Selectivity BD2/BD1: ratio of the BD1 and BD2 IC50
Description: (§1) HTRF reagents and buffers were purchased from Cisbio Bioassays. The assay used a terbium (Ill) cryptate donor reagent conjugated to an anti-GST antibody (MAb anti-GST-Tb; GSTTLA), a streptavidin-conjugated acceptor reagent (streptavidin-d2) and Cisbio proprietary buffers (EPlgeneous Binding Domain Diluent and Detection buffer, respectively). GST-tagged bromodomains (BDs) were expressed in E. coli and purified using standard procedures. Incubation of GST-tagged BDs with biotinylated acetylated H4 peptide (H4K5acK8acK12acK16ac, here named H4ac4) brings the donor and acceptor into close proximity and allows for a FRET reaction. GST-tagged proteins in 25 mM Hepes pH 7.5, 150 mM NaCl, 0.5 mM DTT were assayed at a final concentration of 5 nM. Biotinylated H4ac4 peptides were used at a final concentration of 50, 600 nM in assays involving Brd4 BD1, Brd4 BD2, respectively. The antibody-conjugated donor was used at 0.5 nM and the streptavidin-conjugated acceptor was used at ⅛ of the H4ac4 peptide concentration. Inhibitors were tested by performing an eleven-point dilution series with a maximal final concentration of […]. These concentrations allowed a fixed DMSO concentration at 0.2%, critical for a Z′ factor ≥0.8. Components were incubated at 4° C. for 4 h (BD1) or for 24 h (BD2). Experiments were performed in 384-well white plates (Greiner ref. 781080) and analyzed in a ClarioStar plate reader (BMG LABTECH, excitation at 330 nm and emission at 620 and 665 nm, corresponding to the donor and acceptor emission peaks, respectively; the 665/620 ratio is used to calculate the specific HTRF signal) with an integration delay of 60 μs and an integration time of 400 μs.

Brd4 BD1 = Brd4 BD1 (Homo sapiens (Human), UniProt O60885); experiment: HTRF evaluation of bromodomain inhibitors, Brd4 BD1; assay type: binding; conditions: H4ac4 peptide 50 nM, 4 h at 4° C.
Description: as §1

SMILES | IC50 (Brd4 BD2) | Selectivity BD2/BD1 (Brd4 BD2) | IC50 (Brd4 BD1)
C=CCCCC(=O)Nc1ccc(-c2ccc3c(c2)[C@H](n2cc(-c4ccccc4)nn2)[C@@H](C)[C@@H](CC)N3C(C)=O)cc1 [ent-XD] | 677 nM | 3.4 | 2300 nM
CC[C@H]1[C@H](C)[C@@H](N=[N+]=[N-])c2cc(C(=O)OC)ccc2N1C(C)=O [Compound 30, Methyl-(2S,3S,4R)-1-acetyl-4-azido-2-ethyl-3-methyl-1,2,3,4-tetrahydroquinoline-6-carboxylate] | > 20000 nM |  | > 20000 nM
C=CCCCC(=O)Nc1ccc(-c2ccc3c(c2)[C@H](N=[N+]=[N-])[C@@H](C)[C@@H](CC)N3C(C)=O)cc1 [ent-XC] | 4430 nM | 5.1 | 22400 nM
C=CCCCC(=O)Nc1ccc(-c2ccc3c(c2)[C@@H](NC(=O)OC(C)C)[C@H](C)[C@H](CC)N3C(C)=O)cc1 [XI, Isopropyl-((2S,3S,4S)-1-acetyl-2-ethyl-6-(4-(hex-5-enamido)phenyl)-3-methyl-1,2,3,4-tetrahydroquinolin-4-yl)carbamate] | 2170 nM | 1.2 | 2680 nM
CC[C@H]1[C@@H](C)[C@H](n2cc(C3CCCCC3)nn2)c2cc(C(=O)OC)ccc2N1C(C)=O [XO, Methyl-(2S,3R,4S)-1-acetyl-4-(4-cyclohexyl-1H-1,2,3-triazol-1-yl)-2-ethyl-3-methyl-1,2,3,4-tetrahydroquinoline-6-carboxylate] | 860 nM | 6.4 | 5520 nM
C=CCCCC(=O)Nc1ccc(-c2ccc3c(c2)[C@@H](N=[N+]=[N-])[C@H](C)[C@H](CC)N3C(C)=O)cc1 [XC, N-(4-((2S,3R,4S)-1-acetyl-4-azido-2-ethyl-3-methyl-1,2,3,4-tetrahydroquinolin-6-yl)phel)hex-5-enamide] | 2230 nM | 1.4 | 3100 nM
C#CCOCCOCCOCCOCCOCc1cn([C@@H]2c3cc(C(=O)OC)ccc3N(C(C)=O)[C@@H](CC)[C@H]2C)nn1 [XS, Methyl-(2S,3R,4S)-4-(4-(2,5,8,11,14-pentaoxaheptadec-16-yn-1-yl)-1H-1,2,3-triazol-1-yl)-1-acetyl-2-ethyl-3-methyl-1,2,3,4-tetrahydroquinoline-6-carboxylate] | 1300 nM | 23.1 | ~30000 nM
CC[C@H]1[C@@H](C)[C@H](n2cc(COCCOCCOCc3cn(C4c5cc(C(=O)OC)ccc5N(C(C)=O)[C@@H](CC)[C@H]4C)nn3)nn2)c2cc(C(=O)OC)ccc2N1C(C)=O (stereo partly drawn) [XV, Dimethyl-4,4′-((((oxybis(ethane-2,1-diyl))bis(oxy))bis(methylene))bis(1H-1,2,3-triazole-4,1-diyl))(2S,2'S,3R,3′R,4S,4'S)-bis(1-acetyl-2-ethyl-3-methyl-1,2,3,4-tetrahydroquinoline-6-carboxylate)] | 2430 nM | 0.7 | 1670 nM
CC[C@@H]1[C@H](C)[C@@H](Nc2ncc(Cl)cn2)c2cc(C(=O)OC)ccc2N1C(C)=O [ent-XL] | 7440 nM |  | > 100000 nM
C=CCCCC(=O)Nc1ccc(-c2ccc3c(c2)[C@H](n2cc(CCCCC)nn2)[C@@H](C)[C@@H](CC)N3C(C)=O)cc1 [ent-XE] | > 100000 nM |  | > 100000 nM
CC[C@H]1[C@@H](C)[C@H](n2cc(COCCOCCOCCOCC#Cc3cccc4c3CN(C3CCC(=O)NC3=O)C4=O)nn2)c2cc(C(=O)OC)ccc2N1C(C)=O (stereo partly drawn) [YF, Methyl-(2S,3R,4S)-1-acetyl-4-(4-(14-(2-(2,6-dioxopiperidin-3-yl)-1-oxoisoindolin-4-yl)-2,5,8,11-tetraoxatetradec-13-yn-1-yl)-1H-1,2,3-triazol-1-yl)-2-ethyl-3-methyl-1,2,3,4-tetrahydroquinoline-6-carboxylate] | 1330 nM | 12.7 | 17000 nM
CC[C@H]1[C@@H](C)C(n2cc(COCCOCc3cn(C4c5cc(C(=O)OC)ccc5N(C(C)=O)[C@@H](CC)[C@H]4C)nn3)nn2)c2cc(C(=O)OC)ccc2N1C(C)=O (stereo partly drawn) [XU, Dimethyl-4,4′-(((ethane-1,2-diylbis(oxy))bis(methylene))bis(1H-1,2,3-triazole-4,1-diyl))(2S,2'S,3R,3′R,4S,4'S)-bis(1-acetyl-2-ethyl-3-methyl-1,2,3,4-tetrahydroquinoline-6-carboxylate)] | 57 nM | 4.3 | 247 nM
CC[C@H]1[C@@H](C)[C@H](n2cc(COCCOCCOCCOCCOCc3cn(C4c5cc(C(=O)OC)ccc5N(C(C)=O)[C@@H](CC)[C@H]4C)nn3)nn2)c2cc(C(=O)OC)ccc2N1C(C)=O (stereo partly drawn) [XX, Dimethyl-4,4′-((2,5,8,11,14-pentaoxapentadecane-1,15-diyl)bis(1H-1,2,3-triazole-4,1-diyl))(2S,2'S,3R,3′R,4S,4'S)-bis(1-acetyl-2-ethyl-3-methyl-1,2,3,4-tetrahydroquinoline-6-carboxylate)] | 129 nM | 11.5 | 1470 nM
C#CCOCCOCc1cn([C@@H]2c3cc(C(=O)OC)ccc3N(C(C)=O)[C@@H](CC)[C@H]2C)nn1 [XP, Methyl-(2S,3R,4S)-1-acetyl-2-ethyl-3-methyl-4-(4-((2-(prop-2-yn-1-yloxy)ethoxy)methyl)-1H-1,2,3-triazol-1-yl)-1,2,3,4-tetrahydroquinoline-6-carboxylate] | 2260 nM | 13.2 | ~30000 nM
C=CCCCC(=O)Nc1ccc(-c2ccc3c(c2)[C@H](Nc2ncc(Cl)cn2)[C@@H](C)[C@@H](CC)N3C(C)=O)cc1 [ent-XK] | 2020 nM | 3.0 | 6090 nM
CC[C@H]1[C@@H](C)[C@H](n2cc(-c3ccccc3)nn2)c2cc(C(F)(F)F)ccc2N1C(C)=O [YC, 1-((2S,3R,4S)-2-Ethyl-3-methyl-4-(4-phenyl-1H-1,2,3-triazol-1-yl)-6-(trifluoromethyl)-3,4-dihydroquinolin-1(2H)-yl)ethan-1-one] | 22500 nM |  | 
C=CCCCC(=O)Nc1ccc(-c2ccc3c(c2)[C@H](NC(=O)OC(C)C)[C@@H](C)[C@@H](CC)N3C(C)=O)cc1 [ent-XI] | 2940 nM | 2.0 | 5740 nM
CCCCCc1cn([C@@H]2c3cc(C(F)(F)F)ccc3N(C(C)=O)[C@@H](CC)[C@H]2C)nn1 [YD, 1-((2S,3R,4S)-2-ethyl-3-methyl-4-(4-pentyl-1H-1,2,3-triazol-1-yl)-6-(trifluoromethyl)-3,4-dihydroquinolin-1(2H)-yl)ethan-1-one] | 5710 nM | 7.3 | 41800 nM
CC[C@@H]1[C@H](C)[C@@H](N=[N+]=[N-])c2cc(C(=O)OC)ccc2N1C(C)=O (single isomer, unassigned) [ent-27] | > 100000 nM |  | > 100000 nM
CC[C@H]1[C@@H](C)[C@H](N=[N+]=[N-])c2cc(-c3ccc(NC(=O)CCCCCCC(=O)NO)cc3)ccc2N1C(C)=O [YH, N-(4-((2S,3R,4S)-1-acetyl-4-azido-2-ethyl-3-methyl-1,2,3,4-tetrahydroquinolin-6-yl)phenyl)-N-hydroxyoctanediamide] |  | 1.6 | 

From patent publication US20240287025A1, “TETRAHYDROQUINOLINE (THQ) COUMPOUNDS” (Centre National de la Recherche Scientifique, priority 2021, published 2024)
